Values joined by “and” are separate entries in the source; they are usually repeats but may differ in a detail not shown here. Identical values can stand only once. Like-named read-outs stand apart in the source and are kept apart here.
Tests used:
[1] = biological target: T1, ENT3 (Homo sapiens, UniProt Q9BZD2); design: method as in PMID 33623001; conditions: previous studies, cited from earlier work; for Km: read-out: Km of BA transport by ENT3
T1 construct: plasma membrane–directed ENT3 with a truncated N-terminus (that harbors lysosomal targeting motif); expressed in transfected cells; host or cells: Xenopus laevis oocytes injected with in vitro-transcribed mRNA from pOX-Δ36hENT3
T1 sequence (Q9BZD2 with tags, fused parts or gaps): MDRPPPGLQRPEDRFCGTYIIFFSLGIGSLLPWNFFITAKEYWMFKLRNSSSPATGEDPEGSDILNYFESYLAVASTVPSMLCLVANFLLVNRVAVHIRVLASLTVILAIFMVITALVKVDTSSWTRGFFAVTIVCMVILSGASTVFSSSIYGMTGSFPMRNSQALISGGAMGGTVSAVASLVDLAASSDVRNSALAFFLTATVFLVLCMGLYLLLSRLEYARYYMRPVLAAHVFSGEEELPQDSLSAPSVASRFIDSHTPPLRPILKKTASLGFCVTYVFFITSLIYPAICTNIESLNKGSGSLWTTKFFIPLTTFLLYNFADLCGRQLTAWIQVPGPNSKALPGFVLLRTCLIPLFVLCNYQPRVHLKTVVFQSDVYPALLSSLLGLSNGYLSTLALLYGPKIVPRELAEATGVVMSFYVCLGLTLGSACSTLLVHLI

[2] = biological target: T2, ENT2 (Homo sapiens, UniProt Q14542); assay: BA transport by ENT2-injected oocytes quantified by LC-MS/MS; assay type: cell-based; design: expressed in transfected cells; host or cells: Xenopus laevis oocytes injected with in vitro-transcribed capped mRNA from pOX-hENT2; conditions: pH 7.4, p < 0.001 compared with water-injected oocytes
T2 sequence (Q14542 1-456): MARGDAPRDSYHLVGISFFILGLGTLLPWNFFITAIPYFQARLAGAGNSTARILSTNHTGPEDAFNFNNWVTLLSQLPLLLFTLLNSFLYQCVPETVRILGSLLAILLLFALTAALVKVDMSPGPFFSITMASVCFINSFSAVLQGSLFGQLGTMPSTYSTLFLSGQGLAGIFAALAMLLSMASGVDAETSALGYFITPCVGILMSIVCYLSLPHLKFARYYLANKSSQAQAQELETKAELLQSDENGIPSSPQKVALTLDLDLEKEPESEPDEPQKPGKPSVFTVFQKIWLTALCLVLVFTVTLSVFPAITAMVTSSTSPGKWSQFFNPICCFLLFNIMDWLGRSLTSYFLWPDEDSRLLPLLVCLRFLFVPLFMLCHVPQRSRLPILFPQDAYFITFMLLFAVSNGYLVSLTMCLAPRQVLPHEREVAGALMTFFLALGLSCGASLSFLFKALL
Description: Therefore, we studied several different BAs and used a liquid chromatography–tandem mass spectrometry (LC‒MS/MS) method to quantify the transport activity of H2O-injected and ENT2 mRNA-injected oocytes using TCA as a positive control. […] We subsequently tested the ability of ENT2 to transport BAs at different physiological pH values ranging from pH 5.5 to pH 7.4 by varying the pH of the transport buffers in which the assay was conducted.
The mass spectrometric validation of the transport of all metabolites was performed with oocytes using a previously reported method ([24]). […] After an incubation at 4 °C for 24 h, the samples were centrifuged at 20,000g for 10 min, and the supernatants were collected. The samples (10 μl) were injected into a Thermo Scientific Vanquish UPLC system interfaced with a Thermo Scientific TSQ Quantiva triple-stage quadrupole mass spectrometer equipped with an H-ESI ion source. MS detection was conducted in negative ionization mode, and the transitions monitored for each metabolite are listed in Sup. Table S2. The operational mass spectrometric parameters included a capillary voltage of 4.5 kV; sheath gas of 35 arbitrary units; auxiliary gas of 10 arbitrary units; sweep gas of two arbitrary units; ion transfer tube temperature of 350 °C; vaporizer temperature of 450 °C; dwell time of 50 ms per transition; collision energy of 5 V; and collision-induced dissociation gas of 1.5 mTorr. Chromatographic separation was performed on a Kinetex […] (100 × 2.1 mm; 1.7 μm particle size) from Phenomenex. The mobile phase consisted of solvent A: water (0.1% formic acid) and solvent B: acetonitrile (0.1% formic acid). The flow rate was set at 0.3 ml/min, and the autosampler was maintained at 4 °C throughout the analysis.

[3] = biological target: T2, ENT2; assay: Inhibition of 3H-nucleoside influx by BAs in ENT2-expressing Xenopus oocytes; assay type: cell-based; design: expressed in transfected cells; host or cells: Xenopus laevis oocytes injected with in vitro-transcribed capped mRNA from pOX-hENT2
From the text: We expressed individual ENTs (ENT1, ENT2, and ENT3) in X. laevis oocytes (as described above) and analyzed the Ado influx from each of the ENTs in the presence of different BAs to better understand whether the inhibition profiles differ across human ENTs. […] We also conducted an analysis of the concentration-dependent inhibition of Ado transport to estimate the IC50 values of the BAs (Fig. 4, D–F and Table 2).
Inhibition of Ado influx in H2O- and ENT-injected oocytes by treatment with different BAs at 100 μM. D–F, concentration-dependent inhibition of Ado influx in ENT-injected oocytes by different BAs. The bars represent the mean ± SD (n = 8–12 oocytes). A representative experiment from 3 to 5 independent experiments is presented. Statistical analysis was performed using one-way ANOVA with Dunnett’s multiple comparisons test; ∗p < 0.032, ∗∗p < 0.0021, ∗∗∗∗p < 0.0001.
The generated pOX expression constructs were linearized with either the Not1 or Sac1 restriction enzymes. The digested products were purified via phenol‒chloroform extraction. The mRNAs were synthesized using mMESSAGE mMACHINE (Ambion) transcription kits according to the manufacturer’s instructions. The mRNAs were purified via lithium precipitation. Oocytes were procured from Ecocyte. Prior to experiments, procured oocytes were defolliculated by treating with collagenase A-OR II solution followed by washing with Barth’s solution. Following microscopic verification, selected oocytes were incubated to recover overnight at 25 °C in a shaker incubator. Fifty nanoliters (400–800 ng/μl) of equal amounts of mRNAs were injected into defolliculated oocytes the next day. Expression of plasmids was analyzed after RNA isolation from oocyte extracts and conducting qPCR analysis with gene-specific primers as described earlier ([30]). The injected oocytes were incubated at 15 °C for 24 h before transport assays were performed. […] Uptake was terminated by washing the oocytes three times with arrest buffer containing 20 mM uridine. Individual oocytes were shaken overnight in 10% SDS for complete dissolution, and then the radioactivity was quantified with a Beckman liquid scintillation counter. The data are presented as the mean ± SD (n = 8–12 oocytes). A representative experiment from 3 to 5 independent experiments is presented.

[4] = 3H-Ado 20 μM, sodium-free buffer, read-out: ENT2 IC50 (Ado uptake)
[5] = BA 100 μM, 3H-Ado 20 μM, sodium-free buffer

C[C@H](CCC(=O)O)[C@H]1CC[C@H]2[C@@H]3[C@H](O)C[C@@H]4C[C@H](O)CC[C@]4(C)[C@H]3C[C@H](O)[C@]12C [CA, cholic acid]
Vmax of BA transport by ENT3 [1]: 3.07 ± 0.04 pmol/30 min/oocyte
Km [1]: 168 ± 13.3 µM
transport by ENT2 mRNA-injected vs water-injected oocytes (LC-MS/MS) [2]: significant transport
IC50 [3, 4]: 7.1 ± 1.6 µM
ENT2 % uptake inhibition (Ado) [3, 5]: 74.58%

C[C@H](CCC(=O)NCCS(=O)(=O)O)[C@H]1CC[C@H]2[C@@H]3[C@H](O)C[C@@H]4C[C@H](O)CC[C@]4(C)[C@H]3C[C@H](O)[C@]12C [TCA, taurocholic acid]
transport by ENT2 mRNA-injected vs water-injected oocytes (LC-MS/MS) [2]: significant transport
IC50 [3]: 19.5 ± 4.5 µM
ENT2 % uptake inhibition (Ado) [3, 5]: 70.68%

C[C@H](CCC(=O)O)[C@H]1CC[C@H]2[C@@H]3CC[C@@H]4C[C@H](O)CC[C@]4(C)[C@H]3C[C@H](O)[C@]12C [DCA, deoxycholic acid]
Vmax of BA transport by ENT3 [1]: 3.4 ± 0.06 pmol/30 min/oocyte
Km [1]: 270 ± 24.3 µM
IC50 [3, 4]: 0.9 ± 0.2 µM
ENT2 % uptake inhibition (Ado) [3, 5]: 65% and 64.77%
inhibition of guanosine transport mediated by ENT2 ([3]; BA 100 μM, 3H-guanosine 20 μM): not statistically significant
inhibition of ENT2-mediated uridine uptake ([3]; BA 100 μM, 3H-uridine 20 μM): inhibition of the ENT2-mediated uridine uptake
